{"source": "patent US10626368B2", "about": "“Method for inducing cerebral cortex neurons” (KYOTO UNIVERSITY, priority 2015, dated 2020)", "key": {"[1]": {"test_system": "ES cells (Kh-1)", "assay": "Adhesion of spheres to OFL coat dish", "assay_type": "cell-based, human", "settings": "10 nM C59, ES cells (Kh-1)", "source_text": "Human ES cells (KhES-1) were obtained from Institute for Frontier Medical Sciences, Kyoto University (Suemori H, et al. Biochem Biophys Res Commun. 345: 926-32, 2006). The human iPS cells 404C2 are cells obtained by introducing Oct3/4, Sox2, Klf4, L-MYC, LIN28 and p53shRNA into human fibroblasts, using an episomal vector, and these cells were obtained from Professor Yamanaka et al. in Kyoto University (Okita, et al, Nat Methods. 8: 409-412, 2011). The human iPS cells 836B1 are cells obtained by introducing Oct3/4, Sox2, Klf4, L-MYC, LIN28, GLIS1 and p53shRNA into human fibroblasts, using an episomal vector, and these cells were obtained from Professor Yamanaka et al. in Kyoto University. The ES cells and the iPS cells were cultured on SNL cells (Takahashi K, et al, Cell. 131: 861-872, 2007). The obtained cell mass was transferred on a dish (24-well plate (BD)) coated with 50 μg/ml ornithine (Sigma), 5 μg/ml laminin (Sigma) and 5 μg/ml fibronectin (BD Bioscience Pharmingen), and the culture was continued in Neurobasal (Invitrogen), to which B27 (Invitrogen), 2 mM L-Gln, and 10 units/ml penicillin and streptomycin (Invitrogen) had been added. […] Furthermore, the expression levels of the Foxg1, Lhx2, Emx2 and CoupTF1 genes in the obtained spheres were measured according to a qPCR method (FIG. 4B). […]"}, "[2]": {"test_system": "ES cells or the iPS cells", "assay": "qPCR of marker gene expression in cells differentiated with added inhibitors", "assay_type": "cell-based, human", "settings": "10 nM C59, spheres, qPCR", "source_text": "Human ES cells (KhES-1) were obtained from Institute for Frontier Medical Sciences, Kyoto University (Suemori H, et al. Biochem Biophys Res Commun. 345: 926-32, 2006). The human iPS cells 404C2 are cells obtained by introducing Oct3/4, Sox2, Klf4, L-MYC, LIN28 and p53shRNA into human fibroblasts, using an episomal vector, and these cells were obtained from Professor Yamanaka et al. in Kyoto University (Okita, et al, Nat Methods. 8: 409-412, 2011). The human iPS cells 836B1 are cells obtained by introducing Oct3/4, Sox2, Klf4, L-MYC, LIN28, GLIS1 and p53shRNA into human fibroblasts, using an episomal vector, and these cells were obtained from Professor Yamanaka et al. in Kyoto University. The ES cells and the iPS cells were cultured on SNL cells (Takahashi K, et al, Cell. 131: 861-872, 2007).\nOn the day before induction of differentiation, in order to separate the ES cells or the iPS cells, which had been cultured in a culture medium to which 10 μM Y-27632 (WAKO) had been added, from the SNL feeder cells, the SNL cells were removed with CTK and the remaining cells were then dissociated using Accumax (ICT). The cells were transferred on a 96-well plate (Lipidure-coat 96-well plate (NOF Corporation)) in an amount of 9×10^3 cells per well. Thereafter, the cells were subjected to a suspension culture in DMEM/F12 (WAKO) comprising 50 μM Y-27632 (WAKO), 10 μM SB43152 (Sigma), 10 ng/ml bFGF (Invitrogen), various types of Wnt inhibitors (DKK1 (R & D, 500 ng/ml), C59 (Cellagen Technology, 2-10 nM), XAV (Stemgent, 500 nM-2 μM) or IWP4 (Stemgent, 500 nM-2.5 μM)), LDN193189 (Stemgent), KSR (Invitrogen), 0.1 mM MEM non-essential amino acid (Invitrogen), 0.1 mM 2-mercaptoethanol (WAKO), and 2 mM L-Gln (Invitrogen) (initiation of differentiation induction, day 0). […] Three days later, the medium was exchanged with DMEM/F12 (WAKO) comprising various types of Wnt inhibitors (DKK1, C59, XAV or IWP4 (Stemgent)), LDN193189 (Stemgent), KSR (Invitrogen), 0.1 mM MEM non-essential amino acid (Invitrogen), 0.1 mM 2-mercaptoethanol (WAKO), and 2 mM L-Gln (Invitrogen) (day 6). Thereafter, the medium was exchanged with a fresh one of the same type every 3 days, and the culture was carried out for 18 days after the initiation of differentiation induction (day 18).\nThe obtained cell mass was transferred on a dish (24-well plate (BD)) coated with 50 μg/ml ornithine (Sigma), 5 μg/ml laminin (Sigma) and 5 μg/ml fibronectin (BD Bioscience Pharmingen), and the culture was continued in Neurobasal (Invitrogen), to which B27 (Invitrogen), 2 mM L-Gln, and 10 units/ml penicillin and streptomycin (Invitrogen) had been added. The culture was carried out for, at maximum, 46 days after the initiation of differentiation induction. It is to be noted that the medium was exchanged with a fresh one every 2 or 3 days.\nIn the above-described induction method, 500 ng/ml DKK1, 2 nM C59, 500 nM XAV or 500 nM IWP4 was added as a Wnt inhibitor to the cells, and the obtained mixture was then cultured for 18 days. Thereafter, the expression levels of Six3 (forebrain marker), Sox1 (neuroectodermal marker), Foxg1 (cerebral cortex-forming factor), Lhx2 (cerebral cortex-forming factor), Emx2 (forebrain back portion marker), CoupTF1 (forebrain back portion marker) and Pax6 (forebrain front portion marker) genes in the cultured cells were measured by a qPCR method (FIG. 2).\nThe concentration of C59 used as a Wnt inhibitor in the above-described induction method was examined. Specifically, without using C59, or using 2.5 nM, 10 nM and 1 μM C59, the cells were cultured for 18 days. […] The obtained spheres were subjected to immunostaining of using an antibody against Pax6. […] Furthermore, the expression levels of the Foxg1, Lhx2, Emx2 and CoupTF1 genes in the obtained spheres were measured according to a qPCR method (FIG. 4B). As a result, the expression level of CoupTF1 was low and the expression levels of Lhx2 and Foxg1 were high in the case of using 10 nM C59. […]"}}}
{"smiles": "Cc1cc(-c2ccc(CC(=O)Nc3ccc(-c4cccnc4)cc3)cc2)ccn1", "note": "[C59]", "values": [{"measurement": "adhesion of spheres to an OFL coat dish", "setting": "[1]", "value": "did not adhere so much"}, {"measurement": "expression level of CoupTF1", "setting": "[2]", "value": "low"}, {"measurement": "expression level of Foxg1", "setting": "[2]", "value": "high"}, {"measurement": "expression level of Lhx2", "setting": "[2]", "value": "high"}]}
